# Results taken from the NIST ThermoML archive (doi:10.1021/je049562e).
# Numbers after ± are expanded uncertainties.
# Settings: Liquid, Twin ebulliometer
smiles,measurement,setting,value
CCCCCCC [heptane],vapor or sublimation pressure,372.08 K,102.9 ± 0.065 kPa
same,vapor or sublimation pressure,374.5 K,110.39 ± 0.067 kPa
same,vapor or sublimation pressure,377.68 K,120.89 ± 0.074 kPa
same,vapor or sublimation pressure,384.39 K,145.56 ± 0.081 kPa
same,vapor or sublimation pressure,389.41 K,166.41 ± 0.09 kPa
same,vapor or sublimation pressure,393.58 K,185.5 ± 0.098 kPa
same,vapor or sublimation pressure,396.7 K,200.79 ± 0.11 kPa
same,vapor or sublimation pressure,401.26 K,224.89 ± 0.11 kPa
same,vapor or sublimation pressure,405.44 K,248.92 ± 0.12 kPa
same,vapor or sublimation pressure,409.66 K,275.09 ± 0.13 kPa
same,vapor or sublimation pressure,413.8 K,302.76 ± 0.15 kPa
same,vapor or sublimation pressure,419.17 K,341.76 ± 0.16 kPa
same,vapor or sublimation pressure,423.85 K,378.8 ± 0.17 kPa
same,vapor or sublimation pressure,428.69 K,420.15 ± 0.19 kPa
same,vapor or sublimation pressure,433.81 K,467.65 ± 0.2 kPa
same,vapor or sublimation pressure,438.86 K,518.27 ± 0.22 kPa
same,vapor or sublimation pressure,443.5 K,568.27 ± 0.23 kPa
same,vapor or sublimation pressure,447.95 K,619.76 ± 0.25 kPa
same,vapor or sublimation pressure,451.8 K,666.97 ± 0.27 kPa
same,vapor or sublimation pressure,456.35 K,726.16 ± 0.28 kPa
same,vapor or sublimation pressure,459.78 K,773.29 ± 0.3 kPa
same,vapor or sublimation pressure,465.07 K,850.62 ± 0.32 kPa
same,vapor or sublimation pressure,469.84 K,925.23 ± 0.34 kPa
same,vapor or sublimation pressure,473.39 K,983.9 ± 0.35 kPa
same,vapor or sublimation pressure,476.11 K,1030.6 ± 0.37 kPa
same,vapor or sublimation pressure,479.57 K,1092.4 ± 0.39 kPa
same,vapor or sublimation pressure,483.67 K,1169.4 ± 0.41 kPa
same,vapor or sublimation pressure,487.36 K,1242.3 ± 0.43 kPa
same,vapor or sublimation pressure,490.81 K,1313.4 ± 0.45 kPa
same,vapor or sublimation pressure,494.11 K,1384.2 ± 0.46 kPa
same,vapor or sublimation pressure,496.77 K,1443.4 ± 0.48 kPa
same,vapor or sublimation pressure,500.01 K,1518.2 ± 0.5 kPa
same,vapor or sublimation pressure,503.59 K,1604.1 ± 0.53 kPa
same,vapor or sublimation pressure,507.39 K,1699.5 ± 0.55 kPa
same,vapor or sublimation pressure,510.95 K,1793 ± 0.58 kPa
same,vapor or sublimation pressure,515.27 K,1911.6 ± 0.6 kPa
same,vapor or sublimation pressure,518.99 K,2019.1 ± 0.63 kPa
same,vapor or sublimation pressure,522.22 K,2116.1 ± 0.66 kPa
same,vapor or sublimation pressure,525.53 K,2219.7 ± 0.69 kPa
same,vapor or sublimation pressure,528.3 K,2309.8 ± 0.71 kPa
same,vapor or sublimation pressure,531.47 K,2416.5 ± 0.74 kPa
same,vapor or sublimation pressure,534.57 K,2525.7 ± 0.77 kPa
same,vapor or sublimation pressure,537.2 K,2621.8 ± 0.79 kPa
